Measurements from paper PMC9620171 (Journal of Medicinal Chemistry, 2022).
Read-outs that look alike come from different tables or passages of the source.

Columns and labels:
[1] = test system: HSV; details: lead optimization; ref 11 and data on file; cited from earlier work
[2] = lead optimization; ref 11 and data on file; cited from earlier work
[3] = test system: HSV-1; details: cited from earlier work; for effectiveness on lesion score and virus shedding: wild-type HSV-1, postinfection day 1 to day 4
[4] = test system: HSV-2; details: 10 and 30 mg/kg twice a day, start 72 h postinfection; cited from earlier work
[5] = test system: HSV-1; experiment: Murine lethal challenge assay, intranasal HSV-1 infection; type: in vivo, mice; details: using molar doses
[6] = test system: HSV-2; experiment: Murine lethal challenge assay, intranasal HSV-2 infection; type: in vivo, mice; details: using molar doses
[7] = Pharmacokinetics after oral administration, dog; details: in vivo, 1 mg/kg
[8] = test system: HSV-1; details: 24 h after heat stress; two oral doses of 50 mg/kg; controls 1.4 × 10^6; cited from earlier work
[9] = Pharmacokinetics after oral administration, human; details: in vivo, 100 mg
[10] = test system: two human helicases, one nuclear and one located in the mitochondria; experiment: Inhibition of human helicases; type: biochemical; details: one nuclear and one mitochondrial human helicase
[11] = test system: HSV-2; details: cited from earlier work; for recurrence rate per 10-day period: early treatment days 0–4, follow-up up to 85 days, control 1.0; for time to return to a disease score of zero: control 14 days
[12] = test system: HSV-1; details: oral, start 72 h postinfection; cited from earlier work
[13] = test system: bacterial reversion and mammalian cell chromosome aberration; experiment: Genotoxicity, standard ICH battery; type: cell-based; details: in vitro; free base and mesylate monohydrate examined
[14] = test system: other herpesviruses; details: cited from earlier work
[15] = Routes of elimination of pritelivir in humans; type: in vivo; details: yields pyridinyl phenyl acetic acid and amino thiazole sulfonamide
[16] = test system: HSV; details: four times daily swabbing; cited from earlier work
[17] = test system: HSV; details: pritelivir-resistant, plaque-purified virus, in vitro; cited from earlier work
[18] = test system: HSV-1; details: cited from earlier work
[19] = Pharmacokinetics after oral administration, rat; details: in vivo, 1 mg/kg, elimination half-life in rodents
[20] = test system: HSV-2; details: day 3 to day 7 postinfection, cited from earlier work
[21] = test system: acyclovir resistant, mucocutaneous HSV infection; details: preliminary data, cited from earlier work
[22] = test system: liver, heart muscle, kidney, macrophages, monocytes, T lymphocytes, fibroblasts, and neuronal cells; experiment: Cytotoxicity on a panel of different cell types; type: cell-based
[23] = test system: HSV; details: rats; three daily oral doses, pritelivir 0.5 and 2 mg/kg, valacyclovir 45 and 135 mg/kg; cited from earlier work
[24] = Physicochemical properties of pritelivir mesylate monohydrate; details: 50 for the classification system
[25] = compared with other salts and salt/hydrates; cited from earlier work
[26] = after administration of its prodrug valacyclovir in experimental animals; cited from earlier work
[27] = cited from earlier work

In the case of CNS(=O)(=O)c1sc(N(C)C(=O)Nc2ccc(-c3ccccc3)cc2)nc1C [Compound 3], the “in vivo activity / efficacy” value [1] is given as “superior in vivo efficacy than valacyclovir”.

For Cc1nc(N(C)C(=O)Cc2ccc(-c3ccccc3)cc2)sc1S(N)(=O)=O [Compound 9], the “solubility” value [2] is listed as “solubility remained a challenging issue” and the “in vivo activity / efficacy” value [1] is listed as “high in vitro and in vivo activity”.

In the case of Cc1nc(N(C)C(=O)Cc2ccc(-n3cccn3)cc2)sc1S(N)(=O)=O [Compound 13], the “solubility” value [2] is given as “improved solubility”.

In the case of Cc1nc(N(C)C(=O)Cc2ccc(-c3c(C)noc3C)cc2)sc1S(N)(=O)=O [Compound 14], the “solubility” value [2] is listed as “improved solubility”.

For Cc1nc(N(C)C(=O)Cc2ccc(-c3cccnc3)cc2)sc1S(N)(=O)=O [Compound 15], the “solubility” value [2] is given as “less soluble”.

For Cc1nc(N(C)C(=O)Cc2ccc(-c3ccccn3)cc2)sc1S(N)(=O)=O [Compound 16, pritelivir], the “efficacy against HSV-1 mutant without wild-type mixture” value ([3]; mutant alone, even at 60 mg/kg) is listed as “practically ineffective”, the “outcome of high-dose extended treatment” value ([3]; pritelivir-resistant HSV-1 strain, 60 mg/kg for 8 days) is listed as “prevented mortality and weight loss” and the “influence on lesion score and virus shedding” value ([3]; pritelivir-resistant HSV-1 strain, oral 10 mg/kg, day 1 to day 4) is listed as “only marginal”. The “effectiveness on lesion score and virus shedding” value ([3]; oral 5 mg/kg) was “largely”, the “effectiveness on lesion score and virus shedding” value ([3]; oral 10 mg/kg) was “fully” and the 3-week mortality [4] was “no mortality”. The “solubility” value [2] was “much better solubility”, the “potency factor vs ganciclovir” value [5] was 8 fold and the “potency factor vs ganciclovir” value [6] was 3 fold. The half-life [7] was at least 22 h, the “mean viral genome copy number in trigeminal ganglia” value [8] was 2.4 × 10^2 and the half-life [9] was 60 to 70 h. The “inhibition of human helicases” value [10] was “Neither of these enzymes was inhibited”, the “recurrence rate per 10-day period” value ([11]; 20 mg/kg b.i.d.) was 0.4 and the “recurrence rate per 10-day period” value ([11]; 30 mg/kg b.i.d.) was 0.3. The “decrease of viral shedding compared to controls” value ([11]; day 2 postinfection, vaginal swabs, 20 mg/kg b.i.d.) was 3 orders of magnitude, the “viral load in sacral dorsal root ganglia” value ([11]; days 7, 25 and 85 postinfection, vs valacyclovir and control groups) was “considerably lower” and the “time to return to a disease score of zero” value ([11]; oral 20 mg/kg b.i.d., day 4 to day 14 postinfection) was 7 days. For the same molecule, the “b.i.d. dose at which 3-week mortality was already decreased” value [12] was 0.3 mg/kg, the “genotoxic potential” value [13] was “nongenotoxic” and the “activity against other herpesviruses” value [14] was “only weak (if any) activity”. For the same molecule, the “share of elimination by nonenzymatic hydrolysis” value [15] was “more than 50%”, the “efficacy vs valacyclovir in viral shedding rate and days with lesions” value [16] was “superior efficacy vs valacyclovir” and the “frequency of resistant HSV mutants” value [17] was 0.5 to 4.5 × 10^–6. For the same molecule, the EC50 ([18]; read-out: in vitro EC50, wild-type HSV-1, wild-type) was 0.03 µM, the “higher in vitro ED50 of pritelivir-resistant HSV-1 strain” value ([18]; resistant strain vs wild-type) was 27 fold and the half-life [19] was at least 5 h. The “recurrence of lesion score after treatment” value ([20]; oral 15 or 60 mg/kg t.i.d.) was “no such recurrence was observed”, the “subjects whose lesions improved but did not heal completely” value ([21]; of the 23 subjects treated) was 4 subjects and the “tolerability” value [21] was “well tolerated without significant adverse effects”. For the same molecule, the “cytotoxicity” value [22] was “lack of cytotoxicity”, the “efficacy compared with valacyclovir” value [23] was “superior efficacy” and the “in vivo activity / efficacy” value [1] was “excellent in vivo activity”.

In the case of CS(=O)(=O)O.Cc1nc(N(C)C(=O)Cc2ccc(-c3ccccn3)cc2)sc1S(N)(=O)=O.O [Pritelivir mesylate monohydrate], the BCS class [24] is given as “BCS class 2” and the “stability under forced degradation conditions” value [25] is given as “highest stability”.

In the case of Nc1nc2c(ncn2COCCO)c(=O)[nH]1 [acyclovir], the acyclovir bioavailability [26] is listed as 58–84%.

In the case of Nc1nc2c(ncn2CCC(CO)CO)c(=O)[nH]1 [penciclovir], the half-life of penciclovir ([27]; after dosing with the prodrug famciclovir) is given as 2.0 to 2.5 h and the bioavailability ([27]; human, penciclovir via famciclovir) is given as 60–77%.

In the case of CC(C)[C@H](N)C(=O)OCCOCn1cnc2c(=O)nc(N)[nH]c21 [valacyclovir, reference compound], the “recurrence rate per 10-day period” value ([11]; 100 mg/kg t.i.d. or 150 mg/kg b.i.d.) is listed as 0.9, the “time to return to a disease score of zero” value ([11]; 150 mg/kg b.i.d., delayed treatment) is listed as 12 days and the “effect on viral shedding” value ([11]; valacyclovir 150 mg/kg b.i.d., vaginal swabs) is listed as “no discernible effect”. The mortality ([20]; oral 60 mg/kg t.i.d. (lower dose level)) was 100%.
